Data on two molecules can be found in US20210368793A1, “Method for Controlling PPO Resistant Weeds” (BASF SE, priority 2016, published 2021).

Structures are written as SMILES.

Holding throughout (type): in vivo
Assay [1] has as its system Amaranthus tamariscinus (common waterhemp, AMATA), sensitive biotype (w.1). Description: Greenhouse herbicidal test, sensitive common waterhemp (w.1). Conditions: for Weed control (%) w.1: sensitive biotype, scale 0 (no damage) to 100 (complete destruction). The text has this: (§1) The culture containers used were plastic flowerpots containing loamy sand with approximately 3.0% of humus as the substrate. The seeds of the test plants were sown separately for each species and/or resistant biotype. For the pre-emergence treatment, the active ingredients, which had been suspended or emulsified in water, were applied directly after sowing by means of finely distributing nozzles. The containers were irrigated gently to promote germination and growth and subsequently covered with transparent plastic hoods until the plants had rooted. This cover caused uniform germination of the test plants, unless this had been impaired by the active ingredients. For the post-emergence treatment, the test plants were first grown to a height of 3 to 15 cm, depending on the plant habit, and only then treated with the active ingredients which had been suspended or emulsified in water. For this purpose, the test plants were either sown directly and grown in the same containers, or they were first grown separately as seedlings and transplanted into the test containers a few days prior to treatment. Depending on the species, the plants were kept at 10-25° C. or 20-35° C., respectively. The test period extended over 2 to 4 weeks. During this time, the plants were tended, and their response to the individual treatments was evaluated. The evaluation was carried out by using a scale from 0 to 100. 100 means no emergence of the plants or complete destruction of at least the above-ground parts, and 0 means no damage, or normal course of growth.
(§2) The plants used in the greenhouse experiments were of the following species and biotype: […]

The test system of assay [2] is Amaranthus tamariscinus (common waterhemp, AMATA), PPO resistant biotype 1 containing the ΔG210 mutation (w.2). Description: Greenhouse herbicidal test, PPO resistant common waterhemp biotype 1 (w.2). The following applies: for activity on resistant weeds (w.2), in words: summary of the table, 2 and 4 g/ha, ΔG210 mutation; for Weed control (%) w.2: PPO resistant biotype 1 (ΔG210), scale 0 to 100.
Description: as §1, §2

Assay [3] concerns Amaranthus tamariscinus (common waterhemp, AMATA), PPO resistant biotype 2 containing the ΔG210 mutation (w.3). Description: Greenhouse herbicidal test, PPO resistant common waterhemp biotype 2 (w.3). The following applies: for activity on resistant weeds (w.3), in words: summary of the table, 2 and 4 g/ha, ΔG210 mutation; for Weed control (%) w.3: PPO resistant biotype 2 (ΔG210), scale 0 to 100.
Description: as §1, §2

As to `O=C1[C@H]2C[C@H](F)CN2C(=O)N1c1cc(NS(=O)(=O)CCl)c(Cl)cc1F` [(I).1, profluazol], the “activity on sensitive weeds (w.1), in words” value in assay [1] (summary of the table, 2 and 4 g/ha) is on record as “very good activity”. The “Weed control (%) w.1” value was determined as 88% in assay [1] (use rate 2 g/ha) and 100% in assay [1] (use rate 4 g/ha). The “activity on resistant weeds (w.2), in words” value in assay [2] was “very good activity”. For the same molecule, the “Weed control (%) w.2” value in assay [2] (use rate 2 g/ha) turned out to be 78%; in assay [2] (use rate 4 g/ha), 92%. Further, the “activity on resistant weeds (w.3), in words” value in assay [3] is “very good activity”. In addition, the figures for the “Weed control (%) w.3” value in assay [3] (use rate 2 g/ha) and in assay [3] (use rate 4 g/ha) were 80% and 88%, respectively.
`C#CCOc1cc(-n2nc3n(c2=O)CCCC3)c(Cl)cc1Cl` [azafenidin, reference compound]: the results for the “Weed control (%) w.1” value in assay [1] (use rate 2 g/ha) and in assay [1] (use rate 4 g/ha) were 88% and 100%, respectively. Moreover, the “activity on resistant weeds (w.2), in words” value in assay [2] is given as “much weaker control of resistant in comparison to sensitive biotypes”. Also, the “Weed control (%) w.2” value in assay [2] (use rate 2 g/ha) came out at 62%; in assay [2] (use rate 4 g/ha), 78%. In addition, the “activity on resistant weeds (w.3), in words” value in assay [3] is “much weaker control of resistant in comparison to sensitive biotypes”. The “Weed control (%) w.3” value in assay [3] (use rate 2 g/ha) and in assay [3] (use rate 4 g/ha) was 77% in each case.
